This is an account of results in paper doi:10.1101/2023.11.24.568596v1 (biorxiv, 2023).

Holding throughout (details): binder
One test deals with T1, DRAK1 (Homo sapiens, UniProt Q9UEE5).
T1 sequence (Q9UEE5 1-414): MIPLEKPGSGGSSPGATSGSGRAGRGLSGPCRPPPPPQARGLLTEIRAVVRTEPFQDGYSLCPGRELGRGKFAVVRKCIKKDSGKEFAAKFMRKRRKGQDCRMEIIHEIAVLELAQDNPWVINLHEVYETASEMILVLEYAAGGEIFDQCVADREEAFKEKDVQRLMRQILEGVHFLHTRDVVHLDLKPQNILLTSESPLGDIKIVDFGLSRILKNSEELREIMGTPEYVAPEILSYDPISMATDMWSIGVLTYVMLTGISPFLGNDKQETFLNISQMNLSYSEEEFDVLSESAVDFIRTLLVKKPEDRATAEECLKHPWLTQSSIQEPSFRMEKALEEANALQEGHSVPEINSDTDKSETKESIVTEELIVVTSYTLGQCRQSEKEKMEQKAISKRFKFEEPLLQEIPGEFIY

A further test deals with T2, GAK (Homo sapiens, UniProt O14976).
T2 sequence (O14976 1-1311): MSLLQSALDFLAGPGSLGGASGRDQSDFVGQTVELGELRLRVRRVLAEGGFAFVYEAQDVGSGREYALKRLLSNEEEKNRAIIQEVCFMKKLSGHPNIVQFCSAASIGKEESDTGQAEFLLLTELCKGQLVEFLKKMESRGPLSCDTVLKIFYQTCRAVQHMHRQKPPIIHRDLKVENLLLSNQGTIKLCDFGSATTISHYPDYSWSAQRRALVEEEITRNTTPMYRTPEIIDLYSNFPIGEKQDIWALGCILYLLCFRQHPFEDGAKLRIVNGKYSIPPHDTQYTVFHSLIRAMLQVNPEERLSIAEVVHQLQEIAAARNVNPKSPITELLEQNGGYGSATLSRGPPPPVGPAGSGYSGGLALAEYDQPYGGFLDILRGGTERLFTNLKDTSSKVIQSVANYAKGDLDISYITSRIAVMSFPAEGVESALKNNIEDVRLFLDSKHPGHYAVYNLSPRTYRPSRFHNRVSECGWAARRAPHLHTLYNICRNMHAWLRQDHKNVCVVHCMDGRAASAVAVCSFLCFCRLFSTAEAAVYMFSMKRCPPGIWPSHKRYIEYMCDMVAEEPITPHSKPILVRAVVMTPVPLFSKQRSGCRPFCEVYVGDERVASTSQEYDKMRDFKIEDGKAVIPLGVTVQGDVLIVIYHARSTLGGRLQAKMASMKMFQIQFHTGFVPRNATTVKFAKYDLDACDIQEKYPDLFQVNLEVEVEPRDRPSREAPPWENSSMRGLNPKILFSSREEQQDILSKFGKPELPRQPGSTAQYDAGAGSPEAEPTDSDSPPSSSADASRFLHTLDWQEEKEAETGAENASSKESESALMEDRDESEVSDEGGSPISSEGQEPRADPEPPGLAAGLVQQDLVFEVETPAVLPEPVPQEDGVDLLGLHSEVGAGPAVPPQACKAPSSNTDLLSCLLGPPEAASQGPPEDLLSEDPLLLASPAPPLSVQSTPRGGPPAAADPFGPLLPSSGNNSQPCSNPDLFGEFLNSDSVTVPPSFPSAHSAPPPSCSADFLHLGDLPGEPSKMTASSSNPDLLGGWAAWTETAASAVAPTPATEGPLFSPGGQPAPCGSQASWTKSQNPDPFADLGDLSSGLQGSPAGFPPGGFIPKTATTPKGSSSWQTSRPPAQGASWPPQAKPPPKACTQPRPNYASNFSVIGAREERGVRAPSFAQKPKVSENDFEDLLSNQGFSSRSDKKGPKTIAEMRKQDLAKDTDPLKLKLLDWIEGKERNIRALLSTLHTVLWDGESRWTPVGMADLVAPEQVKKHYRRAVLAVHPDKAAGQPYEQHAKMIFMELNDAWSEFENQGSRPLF

In another test the target is T3, NEK1 (Homo sapiens, UniProt Q96PY6).
T3 sequence (Q96PY6 1-1258): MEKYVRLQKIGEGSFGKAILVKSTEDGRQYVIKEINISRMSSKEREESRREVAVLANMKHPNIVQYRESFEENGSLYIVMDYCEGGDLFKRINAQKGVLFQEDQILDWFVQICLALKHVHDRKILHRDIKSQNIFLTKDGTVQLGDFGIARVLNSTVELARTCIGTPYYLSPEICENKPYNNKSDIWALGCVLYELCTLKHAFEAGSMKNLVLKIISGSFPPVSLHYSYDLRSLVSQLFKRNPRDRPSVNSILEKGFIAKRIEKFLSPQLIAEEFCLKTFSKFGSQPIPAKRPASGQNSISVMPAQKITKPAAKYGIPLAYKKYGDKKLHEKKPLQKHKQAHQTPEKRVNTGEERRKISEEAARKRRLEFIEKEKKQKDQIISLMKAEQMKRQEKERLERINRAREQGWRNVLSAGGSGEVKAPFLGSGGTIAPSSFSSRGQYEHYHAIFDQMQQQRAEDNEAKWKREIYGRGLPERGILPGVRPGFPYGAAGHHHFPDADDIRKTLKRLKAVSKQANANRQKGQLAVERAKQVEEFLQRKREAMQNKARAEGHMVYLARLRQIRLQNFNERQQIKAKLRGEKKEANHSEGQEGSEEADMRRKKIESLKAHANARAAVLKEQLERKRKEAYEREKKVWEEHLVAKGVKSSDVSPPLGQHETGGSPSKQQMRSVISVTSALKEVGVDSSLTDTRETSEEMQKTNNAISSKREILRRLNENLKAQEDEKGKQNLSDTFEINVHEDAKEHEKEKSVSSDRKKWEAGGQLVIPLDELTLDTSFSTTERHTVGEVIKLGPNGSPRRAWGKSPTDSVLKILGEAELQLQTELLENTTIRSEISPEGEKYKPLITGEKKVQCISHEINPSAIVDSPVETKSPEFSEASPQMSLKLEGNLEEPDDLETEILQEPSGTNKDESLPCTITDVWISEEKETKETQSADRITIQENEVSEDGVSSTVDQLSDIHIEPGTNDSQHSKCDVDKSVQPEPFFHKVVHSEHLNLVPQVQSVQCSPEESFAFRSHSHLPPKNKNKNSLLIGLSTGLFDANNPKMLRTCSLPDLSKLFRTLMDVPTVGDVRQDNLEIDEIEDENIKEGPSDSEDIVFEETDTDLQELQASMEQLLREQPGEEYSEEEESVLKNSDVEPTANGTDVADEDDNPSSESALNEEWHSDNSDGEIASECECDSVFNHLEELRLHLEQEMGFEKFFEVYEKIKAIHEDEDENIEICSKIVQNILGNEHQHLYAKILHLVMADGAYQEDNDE

Consider `Cc1cccc(-c2ccc(-c3cc4cnc(NCCCc5ccc(N)cc5)nc4n(CCCCN)c3=O)c(Cl)c2)n1` [compound 25, 8-(4-Aminobutyl)-2-((3-(4-aminophenyl)propyl)amino)-6-(2-chloro-4-(6-methylpyridin-2-yl)phenyl)pyrido[2,3-d]pyrimidin-7(8H)-one], for which the “ΔTm 25” value on DRAK1 is 0.9 °C; at GAK, 6.9 °C; at NEK1, -1.2 °C.
With `CNc1ncc2cc(-c3ccc(-c4cccc(C)n4)cc3Cl)c(=O)n(C[C@H]3CC[C@H](N)CC3)c2n1` [compound 23, 23], the “ΔTm 23” value on DRAK1 is -1.0 °C; on GAK it was 9.3 °C; at NEK1 it was -2.7 °C.
With `CNc1ncc2cc(-c3ccc(-c4cccc(C)n4)cc3Cl)c(=O)n(CCCCN)c2n1` [compound 20, MRLW5], the “ΔTm MRLW5 (20)” value at DRAK1 is -0.5 °C; on GAK it was 7.7 °C; at NEK1, -1.9 °C.
Regarding `CNc1ncc2cc(-c3ccc(-c4cccc(C)n4)cc3Cl)c(=O)n(CCC3CCNCC3)c2n1` [compound 22, 6-(2-Chloro-4-(6-methylpyridin-2-yl)phenyl)-2-(methylamino)-8-(2-(piperidin-4-yl)ethyl)pyrido[2,3-d]pyrimidin-7(8H)-one], the figures for the “ΔTm 22” value on DRAK1, at GAK and on NEK1 were -1.3 °C, 9.7 °C and -2.0 °C, respectively.
For the compound `Cc1cccc(-c2ccc(-c3cc4cnc(NC(CO)CO)nc4n(CCCCN)c3=O)c(Cl)c2)n1` [compound 24, 8-(4-Aminobutyl)-6-(2-chloro-4-(6-methylpyridin-2-yl)phenyl)-2-((1,3-dihydroxypropan-2-yl)amino)pyrido[2,3-d]pyrimidin-7(8H)-one], the entries for the “ΔTm MR24 (24)” value on DRAK1, on GAK and at NEK1 were 0.0 °C, 3.9 °C and 0.0 °C, respectively.
`Cc1cccc(-c2ccc(-c3cc4cnc(NCCCN5CCOCC5)nc4n(CCCCN)c3=O)c(Cl)c2)n1` [compound 26, MR26]: the “ΔTm MR26 (26)” value was determined as 0.2 °C at DRAK1, 3.6 °C on GAK and 0.1 °C at NEK1.
